Columns and labels:
[1] = test system: anaesthetized male Sprague-Dawley rats; test: Hemodynamics in anaesthetized rats (IV bolus); assay type: in vivo, rat; details: IV bolus 0.13 μg/kg to 44 μg/kg
Protocol: The hemodynamic profile of h-SCP (SEQ ID NO:1) was determined in sodium pentobarbital anaesthetized male Sprague-Dawley rats (FIG. 10). A SPR-320 Mikro-Tip® integrated catheter-tipped micro-manometer (Millar Instruments, Houston, Tex., U.S.A.) was placed in the right femoral artery for blood pressure measurements, and another one directly in the left ventricle for LV pressure measurement. […] The changes in hemodynamic parameters induced by h-SCP (SEQ ID NO:1, full circle in FIG. 10) were blocked by pretreatment with anti-sauvagine-30 (SEQ ID NO:118, open circle in FIG. 10).

in vivo = details: mongrel, dog, iv, [SEQ ID NO: 1] plasma concentration
Protocol: (§1) A sandwich immunoassay was developed using an affinity purified goat polyclonal antibody, specific to h-SCP that was pre-coated onto a microplate with integrated electrodes. h-SCP molecules present in the sample will bind to the capture polyclonal antibody coated on the plate. After washing away any unbound substances, a sulfo-tagged mouse monoclonal anti-h-SCP antibody was added. This conjugated antibody will bind to the h-SCP molecules captured on the microplate and the quantity of analyte was determined by electrochemiluminescence. The amount of signal generated is directly proportional to the h-SCP concentration in the sample or standard. The standard curve range is 3.125-1600 pg/mL with a quantifiable range from 10-800 pg/mL. A sample volume of 25 μL (in duplicate) is required for this assay. This immunoassay is specific for human and dog stresscopin and human urocortin III (h-UCN3). […] After completion of the analysis, based on a comparison of reference standards between the ELISA and HPLC method, a correction factor of 1.57 was applied to all bioanalytical data.
The effects of h-SCP (SEQ ID NO:1) on cardiovascular function were also assessed in anaesthetized dogs with advanced, irreversible heart failure of ischemic etiology (Sabbah et al., 1991, Am. J. Physiol., vol. 260, pp. H1379-H1384; Sabbah et al., 1994, Circulation, vol. 98, pp. 2852-2859; Chandler et al., 2002, Circ. Res., vol. 91, pp. 278-280). Progressive, advanced heart failure was produced in mongrel dogs by multiple sequential intracoronary microembolization with polystyrene latex microspheres. Dose infusions of 2.2, 4.3, and 7.3 ng/kg/min were administered intravenously over 60 minutes just following or just prior to hemodynamic, angiographic, echocardiographic, and Doppler measurements using conventional hemodynamic, angiographic, echocardiographic, and radiographic methods. The h-SCP polypeptide (SEQ ID NO:1) produced dose- (infusion-) dependent increases in LVEF and SV and decreases in left ventricular end diastolic pressure (LVEDP), left ventricular pressure during isovolumic relaxation (LV-dP/dt), systemic vascular resistance (SVR), and left ventricular end-systolic volume (LVESV) that correlated with plasma concentration. No significant change in heart rate, peak systolic aortic blood pressure, LV+dP/dt, mean pulmonary artery pressure, mean pulmonary artery wedge pressure, right atrial pressure, or myocardial oxygen consumption were recorded following any of the 1 hour intravenous infusions (Table 18 and FIGS. 12 A & B). The improvement in LV systolic and diastolic function was not associated with the development of de novo ventricular arrhythmias.
In order to determine the threshold effective dose-infusion in dogs with advanced heart failure, a further study was performed at lower dose infusions. In addition, the opportunity was taken to explore whether the increase in LVEF produced by higher dose-infusions of 4.3 ng/kg/min would remain stable over a longer infusion period, i.e. 120 minutes.

[2] = Nonclinical pharmacokinetics in dogs; design: species or system dog; details: in vivo; for Cmax: read-out: Cmax
Protocol: as §1
The nonclinical pharmacokinetics of h-SCP (SEQ ID NO:1) and pegylated stresscopin-like peptides were studied in rats, dogs, and cynomolgus monkeys (cyno). Nonclinical pharmacokinetic studies focused on characterization of IV infusion at pharmacologically relevant dose levels, supplemented with IV and SC bolus and toxicokinetic analysis.

[3] = Human pharmacokinetics, healthy subjects, 24- or 72-hour infusion of 54 ng/kg/min; details: in vivo; for Vd: Vss; for Tmax: median
Protocol: In healthy subjects following a 24- or 72-hour infusion of 54 ng/kg/min of h-SCP (SEQ ID NO:1) noncompartmental pharmacokinetic analyses were performed on plasma concentrations of h-SCP (SEQ ID NO:1).

[4] = male, dog IV infusion 3 hours, M, 3.33 ng/kg/min
[5] = male, dog IV infusion 3 hours, M, 8.33 ng/kg/min
[6] = male, dog IV infusion 3 hours, M, 16.7 ng/kg/min
[7] = male, dog IV infusion 3 hours, M, 33.3 ng/kg/min
[8] = male, 54 ng/kg, healthy subjects, 54 ng/kg/min, 24 Hours Male, mean, N = 7
[9] = male, 54 ng/kg, healthy subjects, 54 ng/kg/min, 72 Hours Male, mean, N = 7

H-TKFTLSLDVPTNIMNLLFNIAKAKNLRAQAAANAHLMAQI-NH2 [SEQ ID NO: 1, TKFTLSLDVPTNIMNLLFNIAKAKNLRAQAAANAHLMAQI-NH2]
hemodynamic profile [1]: dose-dependent increases in heart rate, LV developed pressure (+dP/dt), and a corresponding decrease in blood pressure | level at 1 h (in vivo; 0.22 ng/kg/min): 0.0412 ± 0.0149 ng/mL | level at time molar at 1 h (in vivo; 0.22 ng/kg/min): 0.0094 ± 0.0034 nM | level at 1 h (in vivo; 0.43 ng/kg/min): 0.0372 ± 0.0139 ng/mL | level at time molar at 1 h (in vivo; 0.43 ng/kg/min): 0.0085 ± 0.0032 nM | level at 1 h (in vivo; 2.2 ng/kg/min): 0.141 ± 0.0182 ng/mL | level at time molar at 1 h (in vivo; 2.2 ng/kg/min): 0.0324 ± 0.0042 nM | level at 1 h (in vivo; 4.3 ng/kg/min): 0.178 ± 0.0211 ng/mL | level at 2 h (in vivo; 4.3 ng/kg/min): 0.249 ± 0.0479 ng/mL | level at time molar at 1 h (in vivo; 4.3 ng/kg/min): 0.0408 ± 0.0048 nM | level at time molar at 2 h (in vivo; 4.3 ng/kg/min): 0.057 ± 0.011 nM | level at 1 h (in vivo; 7.3 ng/kg/min): 0.279 ± 0.0296 ng/mL | level at time molar at 1 h (in vivo; 7.3 ng/kg/min): 0.0639 ± 0.0068 nM | half-life ([2]; dog, dogs, two-compartment analysis, read-out: alpha-phase half-life (t1/2 alpha)): 0.167 to 0.333 h | half-life ([2]; dog, dogs, read-out: terminal phase half-life (converted)): ~1 h | time to apparent steady-state plasma concentration after initiation of infusion ([2]; dog, iv): ≤ 1 h | clearance ([2]; dog, dogs, 3.3 to 33.3 ng/kg/min, read-out: plasma clearance): ~0.24 L/h/kg | half-life ([2]; male, dog, iv, 33.3 ng/kg/min, dog IV infusion 3 hours, M, 33.3 ng/kg/min, read-out: t1/2 alpha): 0.228 h | half-life ([2]; male, dog, iv, 33.3 ng/kg/min, dog IV infusion 3 hours, M, 33.3 ng/kg/min, read-out: t1/2 terminal): 1.09 h | Vd ([2]; male, dog, iv, Vss): 0.216 L/kg | half-life ([2]; male, dog, iv, t1/2 alpha): 0.265 h | half-life ([2]; male, dog, iv, t1/2 terminal): 0.993 h | AUC(0-inf) [2, 4]: 0.00234 µg·h/mL | clearance ([2]; male, dog IV infusion 3 hours, M, 3.33 ng/kg/min, read-out: CL): 0.257 L/h/kg | Cmax [2, 4]: 0.814 ng/mL | AUC(0-inf) [2, 5]: 0.00646 µg·h/mL | clearance ([2]; male, dog IV infusion 3 hours, M, 8.33 ng/kg/min, read-out: CL): 0.232 L/h/kg | Cmax [2, 5]: 2.38 ng/mL | AUC(0-inf) [2, 6]: 0.0128 µg·h/mL | clearance ([2]; male, dog IV infusion 3 hours, M, 16.7 ng/kg/min, read-out: CL): 0.239 L/h/kg | Cmax [2, 6]: 5.05 ng/mL | AUC(0-inf) [2, 7]: 0.0264 µg·h/mL | clearance ([2]; male, dog IV infusion 3 hours, M, 33.3 ng/kg/min, read-out: CL): 0.237 L/h/kg | Cmax [2, 7]: 10 ng/mL | Vd ([2]; male, dog IV infusion 3 hours, M, 33.3 ng/kg/min, read-out: Vss): 0.161 L/kg | half-life ([3]; female, 54 ng/kg, T1/2): 23.4 h | half-life ([3]; female, 54 ng/kg, T1/2, effective): 5.84 h | Vd ([3]; female, 54 ng/kg): 2.72 L/kg | AUC(0-inf) ([3]; female, 54 ng/kg, healthy subjects, 54 ng/kg/min, 72 Hours Female, mean, N = 5): 0.74 µg·h/mL | Cmax ([3]; female, 54 ng/kg, healthy subjects, 54 ng/kg/min, 72 Hours Female, mean, N = 6): 11.5 ng/mL | clearance ([3]; female, 54 ng/kg, healthy subjects, 54 ng/kg/min, 72 Hours Female, mean, N = 6, read-out: CL (converted)): 0.33 L/h/kg | Tmax ([3]; female, 54 ng/kg, healthy subjects, 54 ng/kg/min, 72 Hours Female, N = 6): 18 h | half-life ([3]; 54 ng/kg/min, healthy subjects, 24- or 72-hour infusion of 54 ng/kg/min, read-out: Mean terminal half-life): 23.4 to 28.8 h | half-life ([3]; 54 ng/kg/min, healthy subjects, 24- or 72-hour infusion of 54 ng/kg/min, read-out: effective half-life): 5.84 to 9.62 h | clearance ([3]; 54 ng/kg/min, healthy subjects, 24- or 72-hour infusion of 54 ng/kg/min, read-out: mean clearance): 0.28 to 0.38 L/h/kg | T1/2 ([3]; male, 54 ng/kg): 28.81 h | T1/2, effective ([3]; male, 54 ng/kg): 9.62 h | Vss ([3]; male, 54 ng/kg): 4.94 L/kg | half-life ([3]; male, 54 ng/kg, T1/2): 25.7 h | half-life ([3]; male, 54 ng/kg, T1/2, effective): 9.37 h | Vd ([3]; male, 54 ng/kg): 3.7 L/kg | AUC(0-inf) [3, 8]: 0.283 µg·h/mL | Cmax [3, 8]: 12.2 ng/mL | clearance ([3]; male, 54 ng/kg, healthy subjects, 54 ng/kg/min, 24 Hours Male, mean, N = 7, read-out: CL (converted)): 0.28 L/h/kg | Tmax ([3]; male, 54 ng/kg, healthy subjects, 54 ng/kg/min, 24 Hours Male, N = 7): 16 h | AUC(0-inf) [3, 9]: 0.632 µg·h/mL | Cmax [3, 9]: 10.2 ng/mL | clearance ([3]; male, 54 ng/kg, healthy subjects, 54 ng/kg/min, 72 Hours Male, mean, N = 7, read-out: CL (converted)): 0.38 L/h/kg | Tmax ([3]; male, 54 ng/kg, healthy subjects, 54 ng/kg/min, 72 Hours Male, N = 7): 24 h

From patent US20110105397A1, “METHOD FOR TREATING HEART FAILURE WITH STRESSCOPIN-LIKE PEPTIDES” (priority 2009, published 2011)
